Experimental data published in paper PMC6286348, “Inhibitor binding mode and allosteric regulation of Na^+-glucose symporters” (Nature Communications, 2018).
Residue numbers refer to the chain shown, from its start.

Legend:
hSGLT2 A395T = target: T1, hSGLT2 A395T (Homo sapiens, UniProt P31639, A395T); experiment: cell-based; details: poor expression; n = 3 oocytes (n = 2 for dapa-aglycon)
T1 construct: expressed in transfected cells; host or cells: Xenopus laevis oocytes injected with hSGLT2 A395T cRNA and MAP17 cRNA
Method: (§1) Xenopus laevis (Nasco) oocytes (V–VI) were prepared as previously described[20] and injected with 50 nl of cRNA (1 μg/μl). […] Briefly, oocytes were incubated for 30 min in the presence of 50 μM αMDG (5 μM [^14C]αMDG) in a buffer containing (in mM) 100 NaCl, 2 KCl, 1 MgCl2, 1 CaCl2, and 10 N-(2-hydroxyethyl)piperazine-N′-(2-ethanesulfonic acid) (HEPES)/Tris (pH 7.5). After incubation, oocytes were rinsed thoroughly with ice-cold buffer containing (mM) 100 choline Cl^–, 2 KCl, 1 MgCl2, 1 CaCl2, and 10 HEPES/Tris (pH 7.5), individually lysed with 5% sodium dodecyl sulfate, and assayed for radioactivity.
(§2) Injected oocytes were incubated at 18 °C, and after 3–4 days, two electrode voltage clamp experiments were performed as previously described. Briefly, SGLT inward glucose currents were measured as a function of the external Na^+ (0–100 mM NaCl), sugar (0–100 mM αMDG), and inhibitors (0.001–100 μM). Steady-state and hSGLT1 capacitive currents were recorded using voltage steps from a holding voltage, Vh of −60 mV, to voltages in the range of −180 to +50 mV in 20 mV increments. The apparent affinity of αMDG, K0.5, was estimated from plots of the inward current as a function of the external αMDG concentration. Under our experimental conditions, K0.5 is a close approximation of the αMDG binding constant to the Na^+-bound outward conformation of SGLT. The apparent affinity for Na^+, K0.5, was estimated from plots of the αMDG inward current as a function of external Na^+ concentration. For hSGLT1 the interpretation of K0.5 is more complex owing to the presence of two Na^+ binding sites. In this case, the K0.5 is a lumped coefficient for Na^+ binding to the two sites in the outward-facing hSGLT1 conformation. […] The Na^+-to-αMDG stoichiometry was determined from the reversal potential measurements using the Gibbs free energy as previously described. The stoichiometry determinations were reinforced by estimates of αMDG and Na^+ Hill coefficients, and in some cases, by measurement of ^22Na and [^14C]αMDG uptakes under voltage clamp, [21].

hSGLT2 wild-type [1] = target: T2, hSGLT2 wild-type (Homo sapiens, UniProt P31639); experiment: SGLT current measurement in oocytes, hSGLT2 wild-type (MAP17 co-injected); assay type: cell-based; set-up: expressed in transfected cells; host or cells: Xenopus laevis oocytes injected with hSGLT2 cRNA and MAP17 cRNA; details: 22 °C
T2 sequence (P31639 1-672): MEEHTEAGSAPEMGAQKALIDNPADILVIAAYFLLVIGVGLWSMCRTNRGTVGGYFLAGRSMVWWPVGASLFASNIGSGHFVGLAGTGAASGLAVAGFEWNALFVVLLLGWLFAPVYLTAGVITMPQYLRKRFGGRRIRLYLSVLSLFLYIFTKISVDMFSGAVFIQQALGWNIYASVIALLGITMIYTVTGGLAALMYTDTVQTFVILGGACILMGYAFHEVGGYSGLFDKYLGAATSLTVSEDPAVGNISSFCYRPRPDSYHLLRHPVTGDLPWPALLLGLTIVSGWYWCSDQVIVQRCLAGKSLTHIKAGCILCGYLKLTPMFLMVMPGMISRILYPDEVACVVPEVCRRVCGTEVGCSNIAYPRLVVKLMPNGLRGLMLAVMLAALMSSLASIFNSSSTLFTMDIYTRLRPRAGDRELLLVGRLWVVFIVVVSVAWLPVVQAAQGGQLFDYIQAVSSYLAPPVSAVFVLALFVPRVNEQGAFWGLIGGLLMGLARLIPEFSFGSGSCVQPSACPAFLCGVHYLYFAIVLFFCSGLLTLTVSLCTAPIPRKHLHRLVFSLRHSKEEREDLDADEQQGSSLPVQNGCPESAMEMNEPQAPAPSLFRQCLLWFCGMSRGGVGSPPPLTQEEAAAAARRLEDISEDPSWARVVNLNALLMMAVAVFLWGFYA
T2 sequence (Q13113 1-114 partner): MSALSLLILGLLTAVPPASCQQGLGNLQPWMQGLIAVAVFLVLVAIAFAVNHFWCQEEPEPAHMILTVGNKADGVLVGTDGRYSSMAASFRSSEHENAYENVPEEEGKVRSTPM
Method: as §1, §2

hSGLT1 T395A = target: T3, hSGLT1 T395A (Homo sapiens, UniProt P13866, T395A); experiment: SGLT current measurement in oocytes, hSGLT1 T395A; assay type: cell-based; details: effect on αMDG currents in 30 mM αMDG, 22 °C
T3 construct: expressed in transfected cells; host or cells: Xenopus laevis oocytes injected with cRNA
T3 sequence (P13866 1-664 T395A): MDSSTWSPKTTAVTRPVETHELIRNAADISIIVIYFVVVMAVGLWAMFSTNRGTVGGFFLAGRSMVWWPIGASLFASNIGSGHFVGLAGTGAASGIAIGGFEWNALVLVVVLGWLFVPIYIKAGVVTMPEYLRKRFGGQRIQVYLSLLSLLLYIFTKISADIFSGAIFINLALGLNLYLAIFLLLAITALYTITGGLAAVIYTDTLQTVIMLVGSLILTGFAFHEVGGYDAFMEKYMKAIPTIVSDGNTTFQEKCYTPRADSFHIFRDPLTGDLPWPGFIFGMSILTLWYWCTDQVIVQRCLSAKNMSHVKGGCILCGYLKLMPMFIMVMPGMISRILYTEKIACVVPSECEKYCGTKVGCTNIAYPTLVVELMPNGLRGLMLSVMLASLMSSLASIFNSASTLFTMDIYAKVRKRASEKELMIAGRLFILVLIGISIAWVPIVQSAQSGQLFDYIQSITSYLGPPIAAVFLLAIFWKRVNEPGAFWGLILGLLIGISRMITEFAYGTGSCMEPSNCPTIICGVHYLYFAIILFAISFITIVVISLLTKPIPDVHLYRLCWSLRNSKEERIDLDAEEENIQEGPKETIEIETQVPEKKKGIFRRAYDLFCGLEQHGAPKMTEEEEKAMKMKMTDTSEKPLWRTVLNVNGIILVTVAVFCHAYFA
Method: as §1
(§3) Injected oocytes were incubated at 18 °C, and after 3–4 days, two electrode voltage clamp experiments were performed as previously described. Briefly, SGLT inward glucose currents were measured as a function of the external Na^+ (0–100 mM NaCl), sugar (0–100 mM αMDG), and inhibitors (0.001–100 μM). Steady-state and hSGLT1 capacitive currents were recorded using voltage steps from a holding voltage, Vh of −60 mV, to voltages in the range of −180 to +50 mV in 20 mV increments. The apparent affinity of αMDG, K0.5, was estimated from plots of the inward current as a function of the external αMDG concentration. […] The Na^+-to-αMDG stoichiometry was determined from the reversal potential measurements using the Gibbs free energy as previously described. […]

hSGLT1 wild-type = target: T4, hSGLT1 wild-type (Homo sapiens, UniProt P13866); experiment: SGLT current measurement (two electrode voltage clamp) in oocytes, hSGLT1 wild-type; assay type: cell-based; details: inhibition of αMDG currents (100 mM NaCl) or capacitive currents, 22 °C
T4 construct: expressed in transfected cells; host or cells: Xenopus laevis oocytes injected with cRNA
T4 sequence (P13866 1-664): T3 sequence (P13866 1-664 T395A) with A395T
Method: as §1, §3

hSGLT1 D268H = target: T5, hSGLT1 D268H (Homo sapiens, UniProt P13866, D268H); experiment: SGLT current measurement in oocytes, hSGLT1 D268H; assay type: cell-based; details: D268H vs wild type
T5 construct: expressed in transfected cells; host or cells: Xenopus laevis oocytes injected with cRNA
T5 sequence (P13866 1-664 D268H): T3 sequence (P13866 1-664 T395A) with D268H, A395T
Method: as §1, §3

hSGLT2 wild-type [2] = target: T2, hSGLT2 wild-type; details: cited from earlier work

T1 sequence (P31639 whole entry A395T, one chain of several): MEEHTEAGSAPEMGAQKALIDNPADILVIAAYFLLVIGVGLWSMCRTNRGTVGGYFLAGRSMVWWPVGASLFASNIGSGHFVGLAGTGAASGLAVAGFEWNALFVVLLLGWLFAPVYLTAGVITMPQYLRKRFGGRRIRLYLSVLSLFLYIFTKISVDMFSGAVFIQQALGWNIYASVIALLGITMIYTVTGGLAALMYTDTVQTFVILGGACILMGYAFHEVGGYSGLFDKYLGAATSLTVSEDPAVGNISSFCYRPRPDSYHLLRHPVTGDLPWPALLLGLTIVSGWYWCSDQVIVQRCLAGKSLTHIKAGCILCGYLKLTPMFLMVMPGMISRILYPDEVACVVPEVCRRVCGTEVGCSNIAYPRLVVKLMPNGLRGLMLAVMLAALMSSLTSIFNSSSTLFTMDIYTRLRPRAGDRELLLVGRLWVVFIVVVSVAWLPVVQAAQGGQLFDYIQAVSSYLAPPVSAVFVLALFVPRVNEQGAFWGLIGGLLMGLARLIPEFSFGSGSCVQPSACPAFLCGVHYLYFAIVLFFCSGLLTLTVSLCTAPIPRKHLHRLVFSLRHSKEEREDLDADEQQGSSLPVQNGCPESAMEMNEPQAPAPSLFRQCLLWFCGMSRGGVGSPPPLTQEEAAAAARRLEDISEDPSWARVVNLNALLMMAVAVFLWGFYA

| decrease of Ki vs wild-type hSGLT1 (hSGLT1 D268H) | SMILES | Ki (hSGLT2 A395T) | Ki (hSGLT2 wild-type [1]) | Ki (hSGLT1 T395A) | Ki (hSGLT1 wild-type) | higher potency for hSGLT2 (vs hSGLT1) (hSGLT2 wild-type [2]) |
| --- | --- | --- | --- | --- | --- | --- |
|  | O=C(CCc1ccc(O)cc1)c1c(O)cc(O)cc1O [phloretin] | 129 ± 70 µM | 27 ± 3 µM |  |  |  |
|  | CCOc1ccc(Cc2cc(O)ccc2Cl)cc1 [dapa-aglycon] | > 600 µM | 110 ± 30 µM | 187 ± 80 µM | 425 ± 50 µM |  |
| 13 fold | CCOc1ccc(Cc2cc([C@@H]3O[C@H](CO)[C@@H](O)[C@H](O)[C@H]3O)ccc2Cl)cc1 [dapagliflozin] |  |  |  |  | > 100 fold |
